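48-hour exposure; five concentrations; linearly interpolated endpoints. At the TGI there is no net growth.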
Tests used:
Test in all cases: growth of human tumour cells (NCI), 48 h
NCI-H23 lung = test system: NCI-H23 lung
DU-145 prostate = test system: DU-145 prostate
HT29 colon = test system: HT29 colon
MOLT-4 leukemia = test system: MOLT-4 leukemia
NCI/ADR-RES ovarian = test system: NCI/ADR-RES ovarian
M14 melanoma = test system: M14 melanoma
SR leukemia = test system: SR leukemia
MDA-N = test system: MDA-N
SK-MEL-2 melanoma = test system: SK-MEL-2 melanoma
OVCAR-3 ovarian = test system: OVCAR-3 ovarian
KM12 colon = test system: KM12 colon
RPMI-8226 leukemia = test system: RPMI-8226 leukemia
HOP-92 NSCLC = test system: HOP-92 NSCLC
MDA-MB-231 breast = test system: MDA-MB-231 breast
COLO 205 colon = test system: COLO 205 colon
OVCAR-5 ovarian = test system: OVCAR-5 ovarian
UO-31 renal = test system: UO-31 renal
CCRF-CEM leukemia = test system: CCRF-CEM leukemia
ACHN renal = test system: ACHN renal
SN12C renal = test system: SN12C renal
SNB-19 CNS = test system: SNB-19 CNS
SF-539 CNS = test system: SF-539 CNS
K-562 leukemia = test system: K-562 leukemia
SK-OV-3 ovarian = test system: SK-OV-3 ovarian
HL-60(TB) leukemia = test system: HL-60(TB) leukemia
BT-549 breast = test system: BT-549 breast
SK-MEL-28 melanoma = test system: SK-MEL-28 melanoma
RXF 393 renal = test system: RXF 393 renal
SF-268 CNS = test system: SF-268 CNS
NCI-H460 lung = test system: NCI-H460 lung
HCC-2998 colon = test system: HCC-2998 colon
SF-295 CNS = test system: SF-295 CNS
UACC-62 melanoma = test system: UACC-62 melanoma
HCT-116 colon = test system: HCT-116 colon
PC-3 prostate = test system: PC-3 prostate
786-0 renal = test system: 786-0 renal
MDA-MB-435 = test system: MDA-MB-435
EKVX NSCLC = test system: EKVX NSCLC
T-47D breast = test system: T-47D breast
MCF7 breast = test system: MCF7 breast
HS 578T breast = test system: HS 578T breast
IGROV1 ovarian = test system: IGROV1 ovarian
UACC-257 melanoma = test system: UACC-257 melanoma
NCI-H226 lung = test system: NCI-H226 lung
OVCAR-8 ovarian = test system: OVCAR-8 ovarian
HCT-15 colon = test system: HCT-15 colon
NCI-H522 lung = test system: NCI-H522 lung
A549 NSCLC = test system: A549 NSCLC
CAKI-1 renal = test system: CAKI-1 renal
SW-620 colon = test system: SW-620 colon
TK-10 renal = test system: TK-10 renal
SK-MEL-5 melanoma = test system: SK-MEL-5 melanoma
MALME-3M melanoma = test system: MALME-3M melanoma
A498 renal = test system: A498 renal
LOX IMVI melanoma = test system: LOX IMVI melanoma
OVCAR-4 ovarian = test system: OVCAR-4 ovarian
U251 CNS = test system: U251 CNS
HOP-62 NSCLC = test system: HOP-62 NSCLC
SNB-75 CNS = test system: SNB-75 CNS

## Cc1ccccc1C1CC(=O)CC(c2ccccc2C)C12C(=O)NC(=O)NC2=O (centres undefined)
NCI-H23 lung
  TGI: > 100 µM
DU-145 prostate
  TGI: > 100 µM
HT29 colon
  TGI: > 100 µM
MOLT-4 leukemia
  TGI: > 100 µM
NCI/ADR-RES ovarian
  TGI: > 100 µM
M14 melanoma
  TGI: > 100 µM
SR leukemia
  TGI: > 100 µM
MDA-N
  TGI: > 82.8 µM
SK-MEL-2 melanoma
  TGI: > 100 µM
OVCAR-3 ovarian
  TGI: > 100 µM
KM12 colon
  TGI: > 100 µM
RPMI-8226 leukemia
  TGI: 97.4 µM
HOP-92 NSCLC
  TGI: > 100 µM
MDA-MB-231 breast
  TGI: > 100 µM
COLO 205 colon
  TGI: > 100 µM
OVCAR-5 ovarian
  TGI: > 100 µM
UO-31 renal
  TGI: > 100 µM
CCRF-CEM leukemia
  TGI: > 100 µM
ACHN renal
  TGI: > 100 µM
SN12C renal
  TGI: > 100 µM
SNB-19 CNS
  TGI: > 100 µM
SF-539 CNS
  TGI: > 100 µM
K-562 leukemia
  TGI: > 100 µM
SK-OV-3 ovarian
  TGI: > 100 µM
HL-60(TB) leukemia
  TGI: > 100 µM
BT-549 breast
  TGI: > 100 µM
SK-MEL-28 melanoma
  TGI: > 100 µM
RXF 393 renal
  TGI: > 100 µM
SF-268 CNS
  TGI: > 100 µM
NCI-H460 lung
  TGI: > 100 µM
HCC-2998 colon
  TGI: > 100 µM
SF-295 CNS
  TGI: > 100 µM
UACC-62 melanoma
  TGI: > 100 µM
HCT-116 colon
  TGI: > 100 µM
PC-3 prostate
  TGI: > 100 µM
786-0 renal
  TGI: > 100 µM
MDA-MB-435
  TGI: > 100 µM
EKVX NSCLC
  TGI: > 100 µM
T-47D breast
  TGI: > 100 µM
MCF7 breast
  TGI: > 100 µM
HS 578T breast
  TGI: > 100 µM
IGROV1 ovarian
  TGI: > 100 µM
UACC-257 melanoma
  TGI: > 100 µM
NCI-H226 lung
  TGI: > 100 µM
OVCAR-8 ovarian
  TGI: > 100 µM
HCT-15 colon
  TGI: > 100 µM
NCI-H522 lung
  TGI: > 100 µM
A549 NSCLC
  TGI: > 100 µM
CAKI-1 renal
  TGI: > 100 µM
SW-620 colon
  TGI: > 100 µM
TK-10 renal
  TGI: > 100 µM
SK-MEL-5 melanoma
  TGI: > 100 µM
MALME-3M melanoma
  TGI: > 100 µM
A498 renal
  TGI: > 100 µM
LOX IMVI melanoma
  TGI: > 100 µM
OVCAR-4 ovarian
  TGI: > 100 µM
U251 CNS
  TGI: > 100 µM
HOP-62 NSCLC
  TGI: > 100 µM
SNB-75 CNS
  TGI: > 100 µM
